SMILES strings stand for the structures.

Consider 24 compounds from US8431593B2, “Heteroaryl amide derivatives” (H. Lundbeck A/S, priority 2006, dated 2013).

The target in one assay is T1, P2X7 receptor (Homo sapiens, UniProt Q99572).
T1 construct: host or cells: SH-SY5Y
T1 sequence (Q99572 1-595): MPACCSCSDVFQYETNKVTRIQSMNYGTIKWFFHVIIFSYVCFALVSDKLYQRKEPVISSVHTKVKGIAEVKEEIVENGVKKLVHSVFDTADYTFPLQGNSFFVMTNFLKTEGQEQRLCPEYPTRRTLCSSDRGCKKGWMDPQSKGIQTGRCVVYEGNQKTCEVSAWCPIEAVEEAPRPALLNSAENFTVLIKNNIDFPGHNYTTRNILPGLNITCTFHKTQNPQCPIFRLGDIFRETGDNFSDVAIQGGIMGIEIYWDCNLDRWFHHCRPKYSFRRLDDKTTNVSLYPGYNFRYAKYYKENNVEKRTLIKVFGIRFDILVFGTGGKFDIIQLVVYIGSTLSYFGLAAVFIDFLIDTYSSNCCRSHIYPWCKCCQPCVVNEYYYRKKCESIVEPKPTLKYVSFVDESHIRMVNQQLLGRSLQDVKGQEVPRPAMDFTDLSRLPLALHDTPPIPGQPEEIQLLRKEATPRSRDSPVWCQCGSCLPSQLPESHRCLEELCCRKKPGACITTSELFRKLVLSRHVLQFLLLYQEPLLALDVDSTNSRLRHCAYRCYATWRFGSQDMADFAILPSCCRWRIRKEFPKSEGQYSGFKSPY
Nature of the assay: P2X7 calcium mobilization assay, high throughput, antagonist activity (Example 4A). The format is cell-based.
Conditions: not given
The procedure:
One day prior to the experiment, cells are plated at a density of 100,000 cells/well in a 96 well black/clear TC plate (Corning® Costar®, Sigma-Aldrich Co., St. Louis, Mo.). […] After one hour dye incubation, wells are rinsed once with 50 μL assay solution, and are then incubated for an hour at room temperature with 100 μL assay solution containing the test compound. […] After the one hour incubation, plates are transferred to a FLIPR^TETRA instrument (Molecular Devices, Sunnyvale, Calif.) for calcium mobilization analysis.
First, the average maximum relative fluorescent unit (RFU) response from the negative control wells (no agonist) is subtracted from the maximum response detected for each of the other experimental wells. Second, average maximum RFU response is calculated for the positive control wells (agonist wells).
As usually defined, the IC50 is the concentration that inhibits the measured activity by half. As to `O=C(NCC12CC3CC(CC(C3)C1)C2)c1cccc2nc(CC(=O)N3CCC4(CC3)OCCO4)cn12` [Compound 187, N-(adamantan-1-ylmethyl)-2-[2-(1,4-dioxa-8-azaspiro[4.5]dec-8-yl)-2-oxoethyl]imidazo[1,2-a]pyridine-5-carboxamide], the IC50 was below 2 µM.

The same assay, now with this note: 50% decrease in the fluorescence response of cells exposed to 80 μM 2′(3′)-O-(4-benzoyl-benzoyl)adenosine 5′-triphosphate; Example 4A; read-out: IC50.
Regarding `CC1(C)[C@@H]2CC[C@@H](CNC(=O)c3cccc4nc(CC(=O)N5CC[C@@H](N)C5)cn34)[C@H]1C2` [Compound 588, 2-{2-[(3R)-3-aminopyrrolidin-1-yl]-2-oxoethyl}-N-{[(1R,2R,5R)-6,6-dimethylbicyclo[3.1.1]hept-2-yl]methyl}imidazo [1,2-a]pyridine-5-carboxamide], the IC50 was below 2 µM.

Regarding `CC(C)(CO)c1cn2c(C(=O)NCC34CC5CC(CC(C5)C3)C4)cccc2n1` [Compound 539, N-(adamantan-1-ylmethyl)-2-(2-hydroxy-1,1-dimethylethyl)imidazo [1,2-a]pyridine-5-carboxamide], the IC50 is below 2 µM. Same read-out and setting: the value for `CCOC(=O)Cc1cn2c(C(=O)NCC(CC(C)C)c3cccnc3)cccc2n1` (stereo not drawn) [Compound 533, ethyl {5-[(4-methyl-2-pyridin-3-ylpentyl)carbamoyl]imidazo[1,2-a]pyridin-2-yl}acetate] was below 2 µM; that for `CCCN(C)C(=O)CNC(=O)c1cn2c(C(=O)NC[C@@H]3CC[C@H]4C[C@@H]3C4(C)C)cccc2n1` [Compound 505, 5-N-{[(1S,2R,5S)-6,6-dimethylbicyclo[3.1.1]hept-2-yl]methyl}-2-N-{2-[methyl(propyl)amino]-2-oxoethyl}imidazo[1,2-a]pyridine-2,5-dicarboxamide] was below 2 µM; that for `C[C@@H]1CNCCN1C(=O)Cc1cn2c(C(=O)NC[C@@H]3CC[C@@H]4C[C@H]3C4(C)C)cccc2n1` [Compound 561, N-{[(1R,2R,5R)-6,6-dimethylbicyclo[3.1.1]hept-2-yl]methyl}-2-{2-[(2R)-2-methylpiperazin-1-yl]-2-oxoethyl}imidazo[1,2-a]pyridine-5-carboxamide] was below 2 µM.

Still in this assay, the particulars now being: 50% decrease in the fluorescence response of cells exposed to 80 μM of 2′(3′)-O-(4-benzoyl-benzoyl)adenosine 5′-triphosphate; Example 4A; read-out: IC50.
Regarding `CN(C)C(=O)CC(C(=O)O)c1cn2c(C(=O)NCC34CC5CC(CC(C5)C3)C4)cccc2n1` (stereo not drawn) [Compound 812, 2-{5-[(adamantan-1-ylmethyl)carbamoyl]imidazo[1,2-a]pyridin-2-yl}-4-(dimethylamino)-4-oxobutanoic acid], the IC50 was below 2 µM. With `NCC1CCN(C(=O)c2cn3c(C(=O)NCC45CC6CC(CC(C6)C4)C5)cccc3n2)CC1` [Compound 630, N-(adamantan-1-ylmethyl)-2-{[4-(aminomethyl)piperidin-1-yl]carbonyl}imidazo[1,2-a]pyridine-5-carboxamide], the IC50 is below 2 µM. Still for that read-out and setting: in the case of `O=C(NCCc1ccncc1)c1cn2c(C(=O)NCC34CC5CC(CC(C5)C3)C4)cccc2n1` [Compound 660, 5-N-(adamantan-1-ylmethyl)-2-N-(2-pyridin-4-ylethyl)imidazo[1,2-a]pyridine-2,5-dicarboxamide] it was below 2 µM; in that of `CN(C(=O)Cc1cn2c(C(=O)NCC34CC5CC(CC(C5)C3)C4)cccc2n1)C1CCOCC1` [Compound 767, N-(adamantan-1-ylmethyl)-2-{2-[methyl(tetrahydro-2H-pyran-4-yl)amino]-2-oxoethyl} imidazo[1,2-a] pyridine-5-carboxamide], below 2 µM. Still for that read-out and setting: the value for `NC1CCN(C(=O)c2cn3c(C(=O)NCC45CC6CC(CC(C6)C4)C5)cccc3n2)CC1` [Compound 626, N-(adamantan-1-ylmethyl)-2-[(4-aminopiperidin-1-yl)carbonyl]imidazo[1,2-a]pyridine-5-carboxamide] was below 2 µM; that for `CC1(C)C2CC[C@H](CNC(=O)c3cccc4nc(CC(=O)O)cn34)C1C2` (stereo in doubt) [Compound 682, (5-{[(6,6-dimethylbicyclo[3.1.1]hept-2-yl)methyl]carbamoyl}imidazo[1,2-a]pyridin-2-yl)acetic acid] was below 2 µM.

The same assay, now with this note: 50% decrease in the fluorescence response of cells exposed to 80 μM of 2′(3′)-O-(4-benzoyl-benzoyl)adenosine 5′-triphosphate; determined as in Example 4A; read-out: IC50.
Regarding `O=C(O)CC(Cc1ccccc1)c1cn2c(C(=O)NCC34CC5CC(CC(C5)C3)C4)cccc2n1` (stereo not drawn) [Compound 994, 3-{5-[(adamantan-1-ylmethyl)carbamoyl]imidazo[1,2-a]pyridin-2-yl}-4-phenylbutanoic acid], the IC50 is below 2 µM. Still for that read-out and setting: in the case of `CCCC(C(=O)O)c1cn2c(C(=O)NCC34CC5CC(CC(C5)C3)C4)cccc2n1` (stereo not drawn) [Compound 909, 2-{5-[(adamantan-1-ylmethyl)carbamoyl]imidazo[1,2-a]pyridin-2-yl}pentanoic acid] it was below 2 µM; in that of `CCOC(=O)C1(c2cn3c(C(=O)NCC45CC6CC(CC(C6)C4)C5)cccc3n2)CCCC1` [Compound 833, ethyl 1-{5-[(adamantan-1-ylmethyl)carbamoyl]imidazo[1,2-a]pyridin-2-yl} cyclopentane-carboxylate], below 2 µM. On the same count and under the same terms, the value for `CC(C)CC(CNC(=O)c1cccc2nc(C(Cc3ccc(Cl)cc3)C(=O)O)cn12)c1ccc(Cl)cc1` (stereo not drawn) [Compound 940, 3-(4-chlorophenyl)-2-(5-{[2-(4-chlorophenyl)-4-methylpentyl]carbamoyl}imidazo[1,2-a]pyridin-2-yl) propanoic acid] was below 2 µM.

The same assay, now with this note: P2X7 calcium mobilization, Example 4A; 50% decrease in the fluorescence response of cells exposed to 80 μM of (2′(3′)-O-(4-benzoyl-benzoyl)adenosine 5′-triphosephate); read-out: IC50.
As to `CC(C)CC(CNC(=O)c1cccc2nc(CN3CCCC3)cn12)c1ccc(Cl)cc1` (stereo not drawn) [Compound 1036, N-[2-(4-chlorophenyl)-4-methylpentyl]-2-(pyrrolidin-1-ylmethyl) imidazo[1,2-a]pyridine-5-carboxamide], the IC50 is below 2 µM.

Still in this assay, the particulars now being: SH-SY5Y cells; 50% decrease in fluorescence response to 80 μM BzATP; read-out: IC50.
`O=C(NCC12CC3CC(CC(C3)C1)C2)c1cccc2nc(CN3CCCC(O)C3)cn12` (stereo not drawn) [Compound 135, N-(adamantan-1-ylmethyl)-2-[(3-hydroxypiperidin-1-yl)methyl]imidazo[1,2-a]pyridine-5-carboxamide]: the IC50 is below 2 µM. Regarding `CCNC(=O)c1cn2c(C(=O)NCC34CC5CC(CC(C5)C3)C4)cccc2n1` [Compound 72, 5-N-(adamantan-1-ylmethyl)-- ethylimidazo[1,2-a]pyridine-2,5-dicarboxamide], the IC50 is below 2 µM. With `O=C(NCC12CC3CC(CC(C3)C1)C2)c1cccc2nc(CN3CCNCC3)cn12` [Compound 5, N-(adamantan-1-ylmethyl)-2-(piperazin-1-ylmethyl)imidazo[1,2-a]pyridine-5-carboxamide], the IC50 is below 2 µM. As for `CC1(O)CCN(C(=O)c2cn3c(C(=O)NCC45CC6CC(CC(C6)C4)C5)cccc3n2)CC1` [Compound 108, N-(adamantan-1-ylmethyl)-2-[(4-hydroxy-4-methylpiperidin-1-yl)carbonyl]imidazo[1,2-a]pyridine-5-carboxamide], the IC50 was below 2 µM.

The assay is the same for the next values; noted with them: fluorescence response of cells exposed to 80 μM 2′(3′)-O-(4-benzoyl-benzoyl)adenosine 5′-triphosphate; Example 4A; read-out: IC50.
As to `O=C(CC12CC3CC(CC(C3)C1)C2)Nc1cccc2nc(C(=O)N3CCC(F)CC3)cn12` [Compound 387, 2-adamantan-1-yl-N-{2-[(4-fluoropiperidin-1-yl)carbonyl]imidazo[1,2-a]pyridin-5-yl}acetamide], the IC50 is below 2 µM. Same read-out and setting: the value for `CNC1CCN(C(=O)c2cn3c(C(=O)NC[C@@H]4CC[C@H]5C[C@@H]4C5(C)C)cccc3n2)C1` (stereo partly drawn) [Compound 313, N-{[(1S,2R,5S)-6,6-dimethylbicyclo[3.1.1]hept-2-yl]methyl}-2-{[3-(methylamino)pyrrolidin-1-yl]carbonyl}imidazo[1,2-a]pyridine-5-carboxamide] was below 2 µM; that for `COC1CCN(C(=O)Cc2cn3c(C(=O)NCC(CC(C)C)c4ccccc4)cccc3n2)CC1` (stereo not drawn) [Compound 239, 2-[2-(4-methoxypiperidin-1-yl)-2-oxoethyl]-N-(4-methyl-2-phenylpentyl)imidazo [1,2-a]pyridine-5-carboxamide] was below 2 µM.
